The assay has as its system ISR pathway (ATF4 translation). The experiment in a line: ATF4 Nano Luciferase reporter integrated stress response (ISR) assay in H4 ATF4-NLuc cells. The conditions noted are these: compound 30 minutes, then 50 um sodium arsenite for 6 hours, luminescence readout.
[1] abbreviates: Homo sapiens, H4 ATF4-NLuc (clone 17) cells.
The mark [2] stands for this setting: Homo sapiens, read-out: Activity (IC50), H4 ATF4-NLuc (clone 17) cells.
Where [3] appears, read: read-out: Activity (IC50), H4 ATF4-NLuc (clone 17) cells.

Each structure is given as a SMILES string. Like-named read-outs stand apart in the source and are kept apart here. A value given as a limit tells only on which side of the number the result lay.

As a reminder, the IC50 is the concentration that inhibits the measured activity by half. In the case of `O=C(COc1ccc(C(F)(F)F)cc1)NC12CC(c3nnc([C@H]4C[C@@H](OC(F)(F)F)C4)o3)(C1)C2` [Example 162, N-[1-[5-[3-cis-(trifluoromethoxy)cyclobutyl]-1,3,4-oxadiazol-2-yl]-3-bicyclo[1.1.1]pentanyl]-2-[4-(trifluoromethyl)phenoxy]acetamide], the IC50 by setting is: under setting [1], 0.0149 µM; under setting [2], below 1 µM. The like results for `O=C(COc1ccc(Br)cc1)NC12CC(c3nnc([C@H]4C[C@@H](OC(F)(F)F)C4)o3)(C1)C2` [Example 163] were, in that order, 0.0085 µM and below 1 µM.

Take `O=C(NC12CC(c3nnc([C@H]4C[C@@H](OC(F)(F)F)C4)o3)(C1)C2)c1ccc(OC(F)(F)F)cn1` [Example 164]: under setting [2], the half-inhibitory concentration (IC50) is below 1 µM. The same measure, in the same setting: with `O=C(NC12CC(c3nnc(C4CC(OC(F)(F)F)C4)o3)(C1)C2)c1nc2cc(Cl)ccc2o1` (stereo not shown) [Example 165] the figure was below 1 µM. For `O=C(NC12CC(c3nnc([C@H]4C[C@@H](OC(F)(F)F)C4)o3)(C1)C2)c1ccc2cc(C(F)(F)F)ccc2n1` [Example 166, N-[1-[5-[3-cis-(trifluoromethoxy)cyclobutyl]-1,3,4-oxadiazol-2-yl]-3-bicyclo[1.1.1]pentanyl]-6-(trifluoromethyl)quinoline-2-carboxamide], the IC50 by setting is: under setting [1], 0.0081 µM; under setting [2], below 1 µM.

For `O=C(NC12CC(c3nnc([C@H]4C[C@@H](OC(F)(F)F)C4)o3)(C1)C2)c1ccc2cc(Cl)cnc2c1` [Example 167, 3-chloro-N-[1-[5-[3-cis-(trifluoromethoxy)cyclobutyl]-1,3,4-oxadiazol-2-yl]-3-bicyclo[1.1.1]pentanyl]quinoline-7-carboxamide], the IC50 runs as follows: under setting [1], 0.0439 µM; under setting [2], below 1 µM. As to `O=C(NC12CC(c3nnc([C@H]4C[C@@H](OC(F)(F)F)C4)o3)(C1)C2)c1cnc2cc(Cl)ccc2c1` [Example 168], the IC50 under setting [2] is below 1 µM.

Consider `O=C(NC12CC(c3nnc([C@H]4C[C@@H](OC(F)(F)F)C4)o3)(C1)C2)c1ccc2cc(Cl)ccc2n1` [Example 169], for which the IC50 runs as follows: under setting [1], 0.0038 µM; under setting [2], below 1 µM. On to `O=C(NC12CC(c3nnc([C@H]4C[C@@H](OC(F)(F)F)C4)o3)(C1)C2)c1cn2ccc(F)cc2n1` [Example 170], for which the IC50 under setting [2] was below 1 µM. With `O=C(NC12CC(c3nnc([C@H]4C[C@@H](OC(F)(F)F)C4)o3)(C1)C2)c1cc2ccc(Cl)cn2n1` [Example 171], under setting [2], the IC50 is below 1 µM. Take `O=C(CO[C@H]1C[C@@H](n2nccn2)C1)NC12CC(c3nnc([C@H]4C[C@@H](OC(F)(F)F)C4)o3)(C1)C2` [Example 172]: the IC50 under setting [2] was 1 to 10 µM.

As for `O=C(COc1cccc(OC(F)(F)F)c1)NC12CC(c3nnc([C@H]4C[C@@H](OC(F)(F)F)C4)o3)(C1)C2` [Example 173], the IC50 under setting [2] was below 1 µM.

As to `O=C(COc1ccc(C(F)(F)F)nc1)NC12CC(c3nnc([C@H]4C[C@@H](OC(F)(F)F)C4)o3)(C1)C2` [Example 174], the IC50 under setting [2] was below 1 µM. For the compound `O=C(NC12CC(c3nnc([C@H]4C[C@@H](OC(F)(F)F)C4)o3)(C1)C2)c1nc2cc(Cl)ccc2s1` [Example 175], the half-maximal inhibitory concentration (IC50) under setting [2] was below 1 µM. For the compound `O=C(NC12CC(c3nnc([C@H]4C[C@@H](OC(F)(F)F)C4)o3)(C1)C2)c1nc2cc(Cl)ccn2n1` [Example 176], the half-inhibitory concentration (IC50) under setting [2] is below 1 µM. The same measure, in the same setting: for `O=C(NC12CC(c3nnc([C@H]4C[C@@H](OC(F)(F)F)C4)o3)(C1)C2)c1cn2ncc(Cl)cc2n1` [Example 177] the value was below 1 µM; for `O=C(NC12CC(c3nnc([C@H]4C[C@@H](OC(F)(F)F)C4)o3)(C1)C2)c1cn2cc(F)ccc2n1` [Example 180], 1 to 10 µM; for `O=C(NC12CC(c3nnc([C@H]4C[C@@H](OC(F)(F)F)C4)o3)(C1)C2)c1cc2ccc(Cl)n2cn1` [Example 181], below 1 µM. The same measure, in the same setting: with `O=C(NC12CC(c3nnc([C@H]4C[C@@H](OC(F)(F)F)C4)o3)(C1)C2)c1cc2ccc(Cl)cc2nn1` [Example 183] the figure was below 1 µM; with `O=C(NC12CC(c3nnc([C@H]4C[C@@H](OC(F)(F)F)C4)o3)(C1)C2)c1cc2ccc(Br)cc2cn1` [Example 184], below 1 µM; with `O=C(NC12CC(c3nnc([C@H]4C[C@@H](OC(F)(F)F)C4)o3)(C1)C2)c1cn2ccc(C(F)(F)F)cc2n1` [Example 185], below 1 µM. Consider `O=C(NC12CC(c3nnc([C@H]4C[C@@H](OC(F)(F)F)C4)o3)(C1)C2)c1cn2cc(C(F)(F)F)ccc2n1` [Example 186], for which the concentration for half-maximal inhibition (IC50) under setting [2] is below 1 µM. For the compound `O=C(NC12CC(c3nnc([C@H]4C[C@@H](OC(F)(F)F)C4)o3)(C1)C2)c1ccc2ccccc2n1` [Example 187], under setting [2], the IC50 is below 1 µM. Consider `O=C(NC12CC(c3nnc([C@H]4C[C@@H](OC(F)(F)F)C4)o3)(C1)C2)c1cnc2ccccc2n1` [Example 188], for which, under setting [2], the half-inhibitory concentration (IC50) was below 1 µM. Turning to `O=C(NC12CC(c3nnc([C@H]4C[C@@H](OC(F)(F)F)C4)o3)(C1)C2)c1ccc2cc(F)ccc2n1` [Example 189, 6-fluoro-N-[1-[5-[3-cis-(trifluoromethoxy)cyclobutyl]-1,3,4-oxadiazol-2-yl]-3-bicyclo[1.1.1]pentanyl]quinoline-2-carboxamide], the concentration for half-maximal inhibition (IC50) is, setting by setting: (H4 ATF4-NLuc (clone 17) cells) 0.0285 µM; under setting [3], below 1 µM.

On to `O=C(NC12CC(c3nnc([C@H]4C[C@@H](OC(F)(F)F)C4)o3)(C1)C2)c1ncc2ccccc2n1` [Example 191], for which the half-inhibitory concentration (IC50) under setting [2] is below 1 µM. Same read-out and setting: with `O=C(NC12CC(c3nnc([C@H]4C[C@@H](OC(F)(F)F)C4)o3)(C1)C2)c1nc2ccc(Cl)cc2s1` [Example 192] the figure was below 1 µM; with `O=C(NC12CC(c3nnc([C@H]4C[C@@H](OC(F)(F)F)C4)o3)(C1)C2)c1nc2cc(Br)ccc2o1` [Example 193], below 1 µM.

Consider `O=C(NC12CC(c3nnc([C@H]4C[C@@H](OC(F)(F)F)C4)o3)(C1)C2)c1cn2cc(F)c(Cl)cc2n1` [Example 194], for which the IC50 under setting [2] is below 1 µM. The same measure, in the same setting: for `O=C(NC12CC(c3nnc([C@H]4C[C@@H](OC(F)(F)F)C4)o3)(C1)C2)c1ncc2cc(Cl)ccc2n1` [Example 195] the value was below 1 µM; for `O=C(NC12CC(c3nnc([C@H]4C[C@@H](OC(F)(F)F)C4)o3)(C1)C2)c1ccc2cc(Cl)c(F)cc2n1` [Example 196], below 1 µM; for `O=C(COc1ccc(Cl)c(F)c1)NC12CC(NCCO[C@H]3C[C@@H](n4nccn4)C3)(C1)C2` [Example 197], below 1 µM.

As to `O=C(CO[C@H]1C[C@@H](OC(F)(F)F)C1)NC12CC(n3cc(-c4ccc(Cl)cc4)oc3=O)(C1)C2` [Example 198], the IC50 under setting [2] is below 1 µM.

Consider `O=C(CO[C@H]1C[C@@H](OC(F)(F)F)C1)NC12CC(c3nnc(-c4ccc(C(F)(F)F)cn4)o3)(C1)C2` [Example 199], for which the IC50 under setting [2] is below 1 µM. Turning to `O=C(COc1ccc(Cl)c(F)c1)NC12CC(n3cnnn3)(C1)C2` [Example 200], the IC50 under setting [2] is below 1 µM. Same read-out and setting: for `O=C(CO[C@H]1C[C@@H](OC(F)(F)F)C1)NC12CC(c3nc(-c4ccc(Cl)c(F)c4)no3)(C1)C2` [Example 201] the value was below 1 µM. For the compound `O=C(CO[C@H]1C[C@@H](OC(F)(F)F)C1)NC12CC(c3noc(-c4ccc(Cl)cc4)n3)(C1)C2` [Example 203], the 50% inhibitory concentration (IC50) under setting [2] is below 1 µM.

Regarding `O=C(CO[C@H]1C[C@@H](OC(F)(F)F)C1)NC12CC(c3nnc(-c4ccc(C(F)(F)F)nc4)o3)(C1)C2` [Example 204], the IC50 under setting [2] was below 1 µM. `O=C(CO[C@H]1C[C@@H](OC(F)(F)F)C1)NC12CC(c3nc(-c4ccc(Cl)cc4)no3)(C1)C2` [Example 205]: the half-maximal inhibitory concentration (IC50) under setting [2] is below 1 µM. With `O=C(COc1ccc(Cl)cc1)NC12CC(N3CC(CC(F)(F)F)CC3=O)(C1)C2` (stereo not shown) [Example 210], under setting [2], the IC50 was below 1 µM. In the case of `CN1C(=O)N(C23CC(NC(=O)COc4ccc(Cl)cc4)(C2)C3)CC1c1ccc(Cl)cc1` (stereo not shown) [Example 212], the IC50 under setting [2] is below 1 µM.

Consider `O=C(COc1ccc(Cl)cc1)NC12CC(N3CC(C4CCC4)CC3=O)(C1)C2` (stereo not shown) [Example 213], for which the IC50 under setting [2] fell in the range of 1 to 10 µM.

Consider `O=C(COc1ccc(Cl)cc1)NC12CC(N3CC(C4CCC4)=CC3=O)(C1)C2` [Example 214], for which the IC50 under setting [2] is below 1 µM. Same read-out and setting: with `O=C(COc1ccc(Cl)c(F)c1)NC12CC(N3CCN(CC4CCC4)C3=O)(C1)C2` [Example 215] the figure was 1 to 10 µM; with `O=C(COc1ccc(Cl)c(F)c1)NC12CC(N3CC(C4CCC4)OC3=O)(C1)C2` (stereo not shown) [Example 216], below 1 µM. Regarding `O=C(COc1ccc(Cl)c(F)c1)NC12CC(C3CN(C4CCC4)C(=O)O3)(C1)C2` (stereo not shown) [Example 219], the IC50 under setting [3] was above 10 µM. Turning to `O=C(COc1ccc(Cl)c(F)c1)NC12CC(C3CN(CC4CCC4)C(=O)O3)(C1)C2` (stereo not shown) [Example 220], the IC50 under setting [2] is below 1 µM. Same read-out and setting: with `O=C(COc1ccc(Cl)c(F)c1)NC12CC(N3CC(COC(F)(F)F)CC3=O)(C1)C2` (stereo not shown) [Example 221] the figure was below 1 µM; with `O=C(COc1ccc(Cl)c(F)c1)NC12CC(N3CCC(COC(F)(F)F)C3=O)(C1)C2` (stereo not shown) [Example 222], below 1 µM.

Turning to `O=C(COc1ccc(Cl)c(F)c1)NC12CC(N3CC(COC(F)(F)F)OC3=O)(C1)C2` (stereo not shown) [Example 223], the IC50 under setting [2] was 1 to 10 µM. In the case of `O=C(COc1ccc(Cl)c(F)c1)NC12CC(N3CC(C4CN(CC(F)(F)F)C4)OC3=O)(C1)C2` (stereo not shown) [Example 224], the half-inhibitory concentration (IC50) under setting [2] is below 1 µM. `O=C(NC12CC(c3nnc([C@H]4C[C@@H](OC(F)(F)F)C4)o3)(C1)C2)c1ccn(CCOC(F)(F)F)n1` [Example 225]: the IC50 under setting [2] was below 1 µM. Regarding `O=C(COC[C@H]1C[C@@H](OC(F)(F)F)C1)NC12CC(c3nnc([C@H]4C[C@@H](OC(F)(F)F)C4)o3)(C1)C2` [Example 226], the half-maximal inhibitory concentration (IC50) under setting [3] is below 1 µM.

For the compound `O=C(CO[C@H]1C[C@@H](OC(F)(F)F)C1)NC12CC(c3ncc(-c4ccc(Cl)c(F)c4)o3)(C1)C2` [Example 227], under setting [2], the IC50 was below 1 µM. Same read-out and setting: with `O=C(CO[C@H]1C[C@@H](OC(F)(F)F)C1)NC12CC(c3cn(-c4ccc(Cl)c(F)c4)cn3)(C1)C2` [Example 228] the figure was below 1 µM.

Values taken from patent publication US11851440B2, “Modulators of eukaryotic initiation factor 2B, compositions and methods” (Denali Therapeutics Inc., priority 2017, dated 2023).
